Assay [1] concerns the target T1, δ-opioid receptor (Rattus norvegicus, UniProt P33533).
T1 construct: synaptic membrane fraction obtained from the rat brain tissue; from tissue; host or cells: Sprague-Dawley rat brain without cerebellum, synaptic membrane (P2) fraction
The assay can be described thus: Competitive receptor binding assay, synaptic membrane fraction, [3H]DPDPE. Particulars: rat brain synaptic membrane, read-out: Affinity of receptor (Ki, nM) δ. The protocol:
(§1) Regarding the opioid peptide derivatives synthesized in Examples and Reference Examples, the μ- and δ-opioid receptor affinities were obtained by a competitive receptor assay using the synaptic membrane fraction obtained from the rat brain tissue according to the known methods. That is, Sprague-Dawley rats having an average weight of 150-180 g were killed by decapitation, the brain tissue from which cerebellum had been removed was homogenized in 0.32M sucrose and 1 mM HEPES (pH 7.5) containing 50 μg/ml soybean trypsin inhibitor, fractionated and centrifuged to obtain the synaptic membrane fraction (P2 fraction), which was pre-incubated in 50 mM HEPES (pH 7.5) containing 100 mM NaCl, 0.1 mM GDP and soybean trypsin inhibitor to remove endogenous ligands from the P2 fraction.
(§2) A competitive receptor binding assay (Radiolabeled receptor assay: RRA) based on an exchange reaction between a radioactive ligand for the synaptic membrane fraction and a peptide derivative to be tested was performed by using tritium-labeled [^3H]DAGO which is a μ-opioid receptor agonist and tritium-labeled [^3H]DPDPE which has the high δ-opioid receptor selectivity, and incubating an aliquot of the synaptic membrane with the peptide derivative to be tested for a period of time. Upon this, an exchange reaction between a ligand was performed under constant conditions, the radiation remaining in the synaptic membrane fraction was measured, and an amount of the ligand adsorbed onto the synaptic membrane fraction is calculated. By assuming that binding with a receptor occurs in competition between a radioactive ligand and an end ligand, the concentration (IC50) at which the maximum specific binding of the radioactive ligand is 50% inhibited was obtained, from which the affinity constant (Ki) was calculated by a method of Cheng et al. (Biochem. Pharmcol., 22, 3099(1973)).

A further assay deals with T2, μ-opioid receptor (Rattus norvegicus, UniProt P33535).
T2 construct: synaptic membrane fraction obtained from the rat brain tissue; from tissue; host or cells: Sprague-Dawley rat brain without cerebellum, synaptic membrane (P2) fraction
The assay can be described thus: Competitive receptor binding assay, synaptic membrane fraction, [3H]DAGO. Particulars: for Ki: rat brain synaptic membrane, [3H]DAGO, read-out: Affinity of receptor (Ki, nM) μ; for Selectivity δ/μ: ratio Ki δ / Ki μ. On the procedure: as §1, §2

Assay [2] deals with T3, δ-opioid receptor (Mus musculus, UniProt P32300).
T3 construct: using mouse seminiferous tract in place of guinea pig ileum; from tissue; host or cells: mouse seminiferous tract (vas deferens, MVD), organ bath
The assay can be described thus: Mouse seminiferous tract (MVD) assay, inhibition of electrically stimulated constriction. The assay is classed as cell-based. Particulars: agonist activity, read-out: MVD (IC50 ± S.E.).

Assay [3] deals with SD Male rats. The assay can be described thus: Analgesic effect, Randoll-Seritto hind limb pressure method, intracerebroventricular administration. The assay is classed as in vivo. Particulars: rat, i.c.v., 3 μg/animal. The source says: (§3) SD Male rats, weighing 110 to 130 g, were used. One group consisted of five rats. The analgesic effects were examined by a Randoll-Seritto method. […] The threshold was expressed in mm Hg. During the measurement, the upper limit of the pressure applied to a hind limb was 100 mm Hg in order to avoid damage of the tissues.
1) When performing intracerebroventricular administration (i.c.v.), a rat was fixed to a brain stereotactic fixing apparatus under slight ether anesthesia, the skin at a head was dissected, and an administration cannula was inserted into a place at a transverse of […] from a bregma position and a depth of 3.5 to 4.0 mm. The administration volume was 10 μl/animal. Observation of the analgesic action was performed before administration, and at 30 minutes, and 1, 2, 3, 4 and 5 hours after administration. Doses of both compounds were 0.1, 1 and 10 μg/animal. Separately, a group to which 5 mg/kg of naltrexone hydrochloride was administered subcutaneously immediately after compound of Ex.1 10 μg/animal i.c.v and a group to which 5 mg/kg of naltrexone hydrochloride was administered subcutaneously immediately after compound of Ex.4 10 μg/animal i.c.v. was made. In addition, as morphine hydrochloride at a dose of 3 μg/animal i.c.v. group was used as a positive control group and a physiological saline 10 μl/animal i.c.v. group as a control group was made, respectively.
(§4) In order to perform a significant difference test between respective administration groups and control groups, and between values at respective times before administration and after administration, a Dunnet multiple comparative test method was used. In the statistical processing for performing a significant difference test between morphine hydrochloride administration groups and control groups, Student t-test was used. For performing a significant difference test between values at respective times before administration and after administration in morphine hydrochloride administration groups, a Dunnet multiple comparative test method was used. A significant level was at 5 or lower % risk rate (two-tailed test).

The test system of assay [4] is SD Male rats. Kind of assay: Analgesic effect, Randoll-Seritto hind limb pressure method, intravenous administration. The following applies: rat, i.v., 5 mg/kg. The assay is classed as in vivo. On the procedure:
as §3
(§5) 2) When administered intravenously (i.v.), a volume of 2 ml/kg weight was administered to a tail vein and, when administered subcutaneously (s.c.), a volume of 2 ml/kg weight was subcutaneously administered to the back. In the case of intravenous administration, a 1 mg/kg, 3 mg/kg or 10 mg/kg compound of Ex.1 administration group, a 1 mg/kg, 3 mg/kg or 10 mg/kg compound of Ex.4 administration group, a 2 ml/kg physiological saline administration group and a 5 mg/kg morphine hydrochloride administration group were made, respectively. In the case of subcutaneous administration, a 10 mg/kg, 30 mg/kg or 100 mg/kg compound of Ex.1 administration group, a 10 mg/kg, 30 mg/kg or 100 mg/kg compound of Ex.4 administration group, a 2 ml/kg physiological saline administration group and a 5 mg/kg morphine hydrochloride administration group were made, respectively. Observation of the analgesic action was performed 15 minutes, 30 minutes, 1 hour and 2 hours after administration in the case of intravenous administration, 30 minutes, 1 hour, 2 hours and 3 hours after administration in the case of subcutaneous administration, respectively.
as §4

Assay [5] concerns SD Male rats. Kind of assay: Analgesic effect, Randoll-Seritto hind limb pressure method, subcutaneous administration. The assay is classed as in vivo. The following applies: rat, s.c., 5 mg/kg. The protocol: as §3, §5, §4

10 molecules from US6838580B2, “Opioid derivative” (Teikoku Seiyaku Co., Ltd., priority 2002, dated 2005) can be followed below.

A word on the Ki: it is the equilibrium dissociation constant of an inhibitor or competing ligand from its target. The term IC50 denotes the concentration that inhibits the measured activity by half.

T3 sequence (P32300 whole entry): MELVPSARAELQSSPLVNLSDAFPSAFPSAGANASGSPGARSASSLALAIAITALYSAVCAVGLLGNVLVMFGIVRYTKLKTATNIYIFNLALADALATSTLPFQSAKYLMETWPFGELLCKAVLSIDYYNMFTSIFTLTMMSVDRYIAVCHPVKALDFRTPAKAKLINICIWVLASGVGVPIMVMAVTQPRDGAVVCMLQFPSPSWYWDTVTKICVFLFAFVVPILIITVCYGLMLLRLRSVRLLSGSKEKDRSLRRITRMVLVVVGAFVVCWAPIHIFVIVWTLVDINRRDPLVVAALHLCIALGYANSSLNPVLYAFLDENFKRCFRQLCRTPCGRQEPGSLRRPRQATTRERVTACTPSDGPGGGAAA
T2 sequence (P33535 whole entry): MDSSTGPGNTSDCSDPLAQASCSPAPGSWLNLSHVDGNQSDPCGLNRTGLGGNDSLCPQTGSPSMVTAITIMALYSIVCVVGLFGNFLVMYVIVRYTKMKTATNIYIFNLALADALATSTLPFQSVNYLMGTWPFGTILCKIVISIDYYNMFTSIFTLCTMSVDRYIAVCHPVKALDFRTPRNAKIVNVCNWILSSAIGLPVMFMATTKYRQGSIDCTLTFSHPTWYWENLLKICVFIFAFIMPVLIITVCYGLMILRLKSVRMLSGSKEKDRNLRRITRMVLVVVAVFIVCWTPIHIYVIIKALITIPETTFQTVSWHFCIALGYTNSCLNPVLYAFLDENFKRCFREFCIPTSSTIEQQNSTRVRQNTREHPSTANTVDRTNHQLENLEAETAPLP
T1 sequence (P33533 whole entry): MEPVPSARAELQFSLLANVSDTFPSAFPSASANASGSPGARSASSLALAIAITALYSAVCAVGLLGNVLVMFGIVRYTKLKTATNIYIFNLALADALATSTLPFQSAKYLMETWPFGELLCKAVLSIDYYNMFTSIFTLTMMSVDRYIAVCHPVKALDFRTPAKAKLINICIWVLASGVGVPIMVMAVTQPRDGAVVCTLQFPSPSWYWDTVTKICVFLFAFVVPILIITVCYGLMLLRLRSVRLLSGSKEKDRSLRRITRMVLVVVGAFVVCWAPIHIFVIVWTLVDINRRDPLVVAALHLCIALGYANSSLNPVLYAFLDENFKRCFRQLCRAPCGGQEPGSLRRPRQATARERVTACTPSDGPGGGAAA

Take `N[C@@H](Cc1ccc(O)cc1)C(=O)NCCNC(=O)[C@@H](N)Cc1ccc(O)cc1` [Ref.ex.4, 1,2-Bis(Tyr-amino)ethane.2TFA, reference compound]: the Ki on δ-opioid receptor [1] was determined as 8290 nM. Also, at μ-opioid receptor, the Ki stood at 648 ± 95 nM and the “Selectivity δ/μ” value is reported as 13.
For the molecule `Cc1cc(O)cc(C)c1C[C@H](N)C(=O)NCCCCNC(=O)[C@@H](N)Cc1ccc(O)cc1` [Ex.3, 1-(Dmt-amino)-4-Tyr-aminobutane.2HCl], on δ-opioid receptor [1], the Ki was 133 ± 18 nM. For the same molecule, at μ-opioid receptor, the inhibitory constant (Ki) amounted to 0.38 ± 0.02 nM and the “Selectivity δ/μ” value is listed as 349. Besides, on δ-opioid receptor [2], the IC50 was greater than 10 µM.
Take `Cc1cc(O)cc(C)c1C[C@H](N)C(=O)NCCNC(=O)[C@@H](N)Cc1c(C)cc(O)cc1C` [Ex.5, 1,2-Bis(Dmt-amino)ethane.2TFA]: the Ki was 116 ± 10.6 nM at δ-opioid receptor [1] and 1.43 ± 0.01 nM on μ-opioid receptor. For the same molecule, the “Selectivity δ/μ” value on μ-opioid receptor was 81. Moreover, at δ-opioid receptor [2], the IC50 was greater than 10 µM.
Consider `N[C@@H](Cc1ccc(O)cc1)C(=O)NCCCCNC(=O)[C@@H](N)Cc1ccc(O)cc1` [Ref.ex.2, 1,4-Bis(Tyr-amino)butane.2HCl, reference compound], for which the inhibition constant Ki was found to be 6500 nM at δ-opioid receptor [1] and 309 ± 104 nM on μ-opioid receptor. For the same molecule, at μ-opioid receptor, the “Selectivity δ/μ” value amounted to 21.
As for `N[C@@H](Cc1ccccc1)C(=O)NCCCCNC(=O)[C@@H](N)Cc1ccccc1` [Ref.ex.1, 1,4-Bis(Phe-amino)butane.2HCl, reference compound], the inhibitory constant (Ki) at δ-opioid receptor [1] amounted to 46200 nM. On μ-opioid receptor, the Ki was 1530 nM and the “Selectivity δ/μ” value was 30.
For `N[C@@H](Cc1ccc(O)cc1)C(=O)NCCCCCCNC(=O)[C@@H](N)Cc1ccc(O)cc1.O=C(O)C(F)(F)F.O=C(O)C(F)(F)F` [Ref.ex.3, 1,6-Bis(Tyr-amino)hexane.2TFA, reference compound] the same measures were 21900 nM, 410 ± 85 nM and 53.
On to `Cc1cc(O)cc(C)c1C[C@H](N)C(=O)NCCCCCCCCNC(=O)[C@@H](N)Cc1c(C)cc(O)cc1C` [Ex.6, 1,8-Bis(Dmt-amino)octane.2TFA], for which the values for the Ki on δ-opioid receptor [1] and at μ-opioid receptor were 14.8 ± 3 nM and 0.19 ± 0.024 nM, respectively. For the same molecule, the “Selectivity δ/μ” value at μ-opioid receptor is listed as 78. In addition, the IC50 on δ-opioid receptor [2] is greater than 10 µM.
With `CN1CC[C@]23c4c5ccc(O)c4O[C@H]2[C@@H](O)C=C[C@H]3[C@H]1C5.Cl` [Morphine, morphine hydrochloride, reference compound], the “Change in escape reaction threshold / analgesic effect, in words” value in the assay with SD Male rats [3] was “significant increase in the threshold was recognized 30 minutes, 1 hour and 3 hours after administration”; in the assay on SD Male rats [4] it was “significant increase in the escape reaction threshold was recognized 15 minutes, 30 minutes and 1 hour after administration”; in the assay with SD Male rats [5], “significant increase was recognized 30 minutes, 1 hour and 2 hours after administration”. Further, the “Threshold (mmHg)” value is listed as 59 ± 4 mmHg in the assay on SD Male rats [3] (0.5 hr); 59 ± 3 mmHg with SD Male rats [3] (1 hr); 52 ± 3 mmHg in the assay on SD Male rats [3] (2 hr); 52 ± 3 mmHg in the assay with SD Male rats [3] (3 hr); 49 ± 2 mmHg in the assay with SD Male rats [3] (4 hr); 51 ± 2 mmHg in the assay on SD Male rats [3] (5 hr). The “Threshold (mmHg)” value in the assay on SD Male rats [3] (before administration) is listed as 46 ± 1 mmHg; with SD Male rats [4] (0.25 hr), 83 ± 6^##,$$ mmHg; in the assay on SD Male rats [4] (0.5 hr), 79 ± 7^##,$$ mmHg; in the assay on SD Male rats [4] (1 hr), 78 ± 6^##,$$ mmHg; in the assay with SD Male rats [4] (2 hr), 65 ± 7 mmHg; in the assay on SD Male rats [4] (before administration), 49 ± 2 mmHg. The “Threshold (mmHg)” value in the assay on SD Male rats [5] (0.5 hr) is on record as 87 ± 2^##,$$ mmHg; with SD Male rats [5] (1 hr), 85 ± 6^##,$$ mmHg; with SD Male rats [5] (2 hr) it was 71 ± 7^#,$ mmHg; with SD Male rats [5] (3 hr), 61 ± 7 mmHg; with SD Male rats [5] (before administration) it was 48 ± 2 mmHg.
`N[C@@H](Cc1ccc(O)cc1)C(=O)NCCCCCCCCNC(=O)[C@@H](N)Cc1ccc(O)cc1` [Ref.ex.5, 1,8-Bis(Tyr-amino)octane.2TFA, reference compound]: the values for the Ki at δ-opioid receptor [1] and on μ-opioid receptor were 6150 nM and 399 ± 40.5 nM, respectively.
In the case of `Cc1cc(O)cc(C)c1C[C@H](N)C(=O)NCCCCNC(=O)[C@@H](N)Cc1ccccc1` [Ex.2, 1-Dmt-amino-4-Phe-aminobutane.2HCl], at δ-opioid receptor [1], the Ki was 61 ± 5.7 nM. At μ-opioid receptor, the inhibition constant (Ki) stood at 0.52 ± 0.089 nM and the “Selectivity δ/μ” value is given as 117. Also, on δ-opioid receptor [2], the IC50 was greater than 10 µM.
